The target in this experiment is human FXa (Homo sapiens, UniProt P00742). Put plainly: Inhibitory action of human activated blood coagulation factor X (FXa). Type of experiment: biochemical. Particulars: concentration inhibiting FXa activity by 50%; substrate S-2765, 37° C., absorbance at 405 nm. Here is the method:
(1) Inhibitory Action of Human Activated Blood Coagulation Factor X (FXa):
Test method: A solution (225 μL) of 0.05M tris-hydrochloric acid buffers (pH=8.3) containing 0.145 M of sodium chloride and 2 mM of calcium chloride, a test compound dissolved in dimethyl sulfoxide (5 μL) and human FXa (10 μL, 0.3 unit/ml) were added to a 96-well microplate and reacted at 37° C. for about 10 minutes, and then a substrate (10 μL, 3 mM, S-2765) was added to be reacted at 37° C. for 10 minutes. Then, after aqueous 50% acetic acid (25 μL) was added there to stop the reaction, the change of absorbance at 405 nm was measured by a microplatereader, and a concentration inhibiting FXa activity by 50% (IC50) was calculated.

pIC50: −log10 of the molar value. Structures can show the parent of a compound that is named as a salt.

This is an account of results in patent US7534887B2, “Thiazoline derivative and use of the same” (Takeda Pharmaceutical Company Limited, priority 2003, dated 2009).

For orientation: pIC50 means −log10 of the IC50, conventionally taken in molar units. A low value points to a high IC50.

Sequence of human FXa (P00742 235-488 limits assumed): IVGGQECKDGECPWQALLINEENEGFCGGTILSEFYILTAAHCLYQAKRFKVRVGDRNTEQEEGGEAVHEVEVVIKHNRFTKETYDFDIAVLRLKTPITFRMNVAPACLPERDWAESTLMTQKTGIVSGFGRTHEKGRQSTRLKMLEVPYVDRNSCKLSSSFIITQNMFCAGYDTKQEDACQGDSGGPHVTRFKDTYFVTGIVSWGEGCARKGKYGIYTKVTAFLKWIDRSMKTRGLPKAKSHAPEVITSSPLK
Sequence of human FXa (P00742 41-179 partner limits assumed): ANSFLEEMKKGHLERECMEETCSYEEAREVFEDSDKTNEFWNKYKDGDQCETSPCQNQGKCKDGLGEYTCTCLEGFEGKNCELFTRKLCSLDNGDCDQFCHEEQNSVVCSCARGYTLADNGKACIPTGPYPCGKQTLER

With `C/N=c1\scc(CN2CCN(C(=O)CCS(=O)(=O)c3ccc4cc(Cl)ccc4c3)CC2)n1C` [Example 5, N-((2Z)-4-((4-(3-((6-Chloro-2-naphthyl)sulfonyl)propanoyl)-1-piperazinyl)methyl)-3-methyl-1,3-thiazol-2(3H)-ylidene)-N-methylamine dihydrochloride], the pIC50 is 7.24. Then `Cn1c(CN2CCN(C(=O)CCS(=O)(=O)c3ccc4cc(Cl)ccc4c3)CC2)csc1=N` [Example 12, 4-((4-(3-((6-Chloro-2-naphthyl)sulfonyl)propanoyl)-1-piperazinyl)methyl)-3-methyl-1,3-thiazol-2(3H)-imine dihydrochloride], with 7.66; and `C/N=c1\sc(C2CCN(C(=O)CCS(=O)(=O)c3ccc4cc(Cl)ccc4c3)CC2)c(CO)n1C` [Example 38], with 7.96; and `COC(=O)C1CN(CC2=CSC3=NCCN23)CCN1C(=O)CCS(=O)(=O)c1ccc2cc(Cl)ccc2c1` (stereo not shown) [Example 44, Methyl 1-(3-((6-chloro-2-naphthyl)sulfonyl)propanoyl)-4-(5,6-dihydroimidazo[2,1-b][1,3]thiazol-3-ylmethyl)piperazine-2-carboxylate], with 7.85. Then `Cn1cc(C2CCN(C(=O)CCS(=O)(=O)c3ccc4cc(Cl)ccc4c3)CC2)sc1=N` [Example 58, 5-(1-(3-((6-Chloro-2-naphthyl)sulfonyl)propanoyl)-4-piperidinyl)-3-methyl-1,3-thiazol-2(3H)-imine], with 7.22; and `C/N=c1\sc(C2CCN(C(=O)CCS(=O)(=O)c3ccc4cc(Cl)ccc4c3)CC2)c(C(=O)O)n1C` [Example 68, (2Z)-5-(1-(3-((6-Chloro-2-naphthyl)sulfonyl)propanoyl)-1-piperidinyl)-3-methyl-2-(methylimino)-2,3-dihydro-1,3-thiazole-4-carboxylic acid], with 8.08. Then `C/N=c1\sc(C2CCN(C(=O)CCS(=O)(=O)c3ccc4cc(Cl)ccc4c3)CC2)c(C(=O)OC)n1C` [Example 77, Methyl (2Z)-5-(1-(3-((6-chloro-2-naphthyl)sulfonyl)propanoyl)-1-piperidinyl)-3-methyl-2-(methylimino)-2,3-dihydro-1,3-thiazol-4-carboxylate], with 8.03.

`C/N=c1\sccn1CCC1CCN(C(=O)CCS(=O)(=O)c2ccc3cc(Cl)ccc3c2)CC1` [Example 83] showed a pIC50 of 8.17. Then `O=C(CCS(=O)(=O)c1ccc2cc(Cl)ccc2c1)N1CCC(/N=c2\sccn2CCO)CC1` [Example 92, 2-((2Z)-2-((1-(3-((6-Chloro-2-naphthyl)sulfonyl)propanoyl)-4-piperidinyl)imino)-1,3-thiazol-3(2H)-yl)ethanol], with 7.33; and “N-((2Z)-5-(1-(3-((6-Chloro-2-naphthyl)sulfonyl)propanoyl)-1-piperidinyl)-3-methyl-1,3-thiazol-2(3H)-ylidene)-N-methylamine [Example 46]”, with 7.52.
